According to ChEMBL document CHEMBL5291721, “A preclinical secondary pharmacology resource illuminates target-adverse drug reaction associations of marketed drugs” (Nat Commun, 2023):

Columns and labels:
Vasopressin V1a receptor = Vasopressin V1a receptor (Homo sapiens, UniProt P37288)
[1] = target: T1, Muscarinic acetylcholine receptor M2 (Homo sapiens, UniProt P08172); format: functional, cell-based
T1 sequence (P08172 whole entry): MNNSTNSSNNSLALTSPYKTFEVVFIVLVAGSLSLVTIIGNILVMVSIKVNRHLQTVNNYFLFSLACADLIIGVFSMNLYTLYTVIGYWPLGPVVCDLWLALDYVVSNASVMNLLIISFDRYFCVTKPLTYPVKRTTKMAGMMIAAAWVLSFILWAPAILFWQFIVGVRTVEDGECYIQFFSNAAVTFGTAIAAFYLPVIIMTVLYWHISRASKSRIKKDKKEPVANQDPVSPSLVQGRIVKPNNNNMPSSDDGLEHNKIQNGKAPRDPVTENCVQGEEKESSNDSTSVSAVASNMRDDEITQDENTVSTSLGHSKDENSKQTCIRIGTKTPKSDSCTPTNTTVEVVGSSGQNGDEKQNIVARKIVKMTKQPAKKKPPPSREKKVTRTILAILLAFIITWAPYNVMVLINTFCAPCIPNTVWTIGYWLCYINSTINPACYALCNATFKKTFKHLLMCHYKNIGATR

Histamine H2 receptor = Histamine H2 receptor (Homo sapiens, UniProt P25021); format: functional, cell-based
Sequence of Histamine H2 receptor (P25021 whole entry): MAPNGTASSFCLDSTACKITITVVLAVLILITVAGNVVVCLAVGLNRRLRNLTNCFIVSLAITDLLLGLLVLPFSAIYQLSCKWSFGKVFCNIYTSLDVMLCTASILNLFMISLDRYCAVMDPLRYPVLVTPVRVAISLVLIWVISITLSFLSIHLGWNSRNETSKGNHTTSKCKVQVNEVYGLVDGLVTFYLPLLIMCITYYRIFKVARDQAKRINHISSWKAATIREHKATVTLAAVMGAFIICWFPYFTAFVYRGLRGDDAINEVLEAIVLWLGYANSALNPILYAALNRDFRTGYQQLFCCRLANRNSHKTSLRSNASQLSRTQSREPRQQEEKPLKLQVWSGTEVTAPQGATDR

Motilin receptor = Motilin receptor (Homo sapiens, UniProt O43193)
Sequence of Motilin receptor (O43193 whole entry): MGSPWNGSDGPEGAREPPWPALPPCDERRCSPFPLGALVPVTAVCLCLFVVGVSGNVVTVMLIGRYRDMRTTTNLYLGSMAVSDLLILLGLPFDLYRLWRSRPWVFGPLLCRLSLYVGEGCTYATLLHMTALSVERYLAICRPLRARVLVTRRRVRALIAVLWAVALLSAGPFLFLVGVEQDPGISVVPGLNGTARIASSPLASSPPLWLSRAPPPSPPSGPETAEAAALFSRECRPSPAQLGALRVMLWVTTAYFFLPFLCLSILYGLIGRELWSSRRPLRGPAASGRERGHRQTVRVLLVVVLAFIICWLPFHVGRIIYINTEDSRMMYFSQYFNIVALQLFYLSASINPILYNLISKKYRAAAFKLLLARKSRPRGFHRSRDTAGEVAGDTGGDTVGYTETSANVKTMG

Endothelin-1 receptor = target: T2, Endothelin-1 receptor (Homo sapiens, UniProt P25101)
T2 sequence (P25101 whole entry): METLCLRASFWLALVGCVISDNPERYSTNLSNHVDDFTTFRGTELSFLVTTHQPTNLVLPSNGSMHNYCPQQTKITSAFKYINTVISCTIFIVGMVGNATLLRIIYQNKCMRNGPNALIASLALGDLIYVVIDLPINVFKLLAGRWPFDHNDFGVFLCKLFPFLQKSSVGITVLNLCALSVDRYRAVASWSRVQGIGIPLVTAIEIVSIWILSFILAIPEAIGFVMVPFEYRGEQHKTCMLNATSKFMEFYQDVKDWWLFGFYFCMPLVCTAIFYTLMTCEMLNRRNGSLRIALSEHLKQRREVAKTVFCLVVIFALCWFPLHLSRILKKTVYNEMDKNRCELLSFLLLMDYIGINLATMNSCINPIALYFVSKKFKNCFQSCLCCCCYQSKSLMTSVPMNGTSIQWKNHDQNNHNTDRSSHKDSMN

[2] = target: cGMP-inhibited 3',5'-cyclic phosphodiesterase 3A (Homo sapiens, UniProt Q14432); format: functional
Sequence of cGMP-inhibited 3',5'-cyclic phosphodiesterase 3A (Q14432 whole entry): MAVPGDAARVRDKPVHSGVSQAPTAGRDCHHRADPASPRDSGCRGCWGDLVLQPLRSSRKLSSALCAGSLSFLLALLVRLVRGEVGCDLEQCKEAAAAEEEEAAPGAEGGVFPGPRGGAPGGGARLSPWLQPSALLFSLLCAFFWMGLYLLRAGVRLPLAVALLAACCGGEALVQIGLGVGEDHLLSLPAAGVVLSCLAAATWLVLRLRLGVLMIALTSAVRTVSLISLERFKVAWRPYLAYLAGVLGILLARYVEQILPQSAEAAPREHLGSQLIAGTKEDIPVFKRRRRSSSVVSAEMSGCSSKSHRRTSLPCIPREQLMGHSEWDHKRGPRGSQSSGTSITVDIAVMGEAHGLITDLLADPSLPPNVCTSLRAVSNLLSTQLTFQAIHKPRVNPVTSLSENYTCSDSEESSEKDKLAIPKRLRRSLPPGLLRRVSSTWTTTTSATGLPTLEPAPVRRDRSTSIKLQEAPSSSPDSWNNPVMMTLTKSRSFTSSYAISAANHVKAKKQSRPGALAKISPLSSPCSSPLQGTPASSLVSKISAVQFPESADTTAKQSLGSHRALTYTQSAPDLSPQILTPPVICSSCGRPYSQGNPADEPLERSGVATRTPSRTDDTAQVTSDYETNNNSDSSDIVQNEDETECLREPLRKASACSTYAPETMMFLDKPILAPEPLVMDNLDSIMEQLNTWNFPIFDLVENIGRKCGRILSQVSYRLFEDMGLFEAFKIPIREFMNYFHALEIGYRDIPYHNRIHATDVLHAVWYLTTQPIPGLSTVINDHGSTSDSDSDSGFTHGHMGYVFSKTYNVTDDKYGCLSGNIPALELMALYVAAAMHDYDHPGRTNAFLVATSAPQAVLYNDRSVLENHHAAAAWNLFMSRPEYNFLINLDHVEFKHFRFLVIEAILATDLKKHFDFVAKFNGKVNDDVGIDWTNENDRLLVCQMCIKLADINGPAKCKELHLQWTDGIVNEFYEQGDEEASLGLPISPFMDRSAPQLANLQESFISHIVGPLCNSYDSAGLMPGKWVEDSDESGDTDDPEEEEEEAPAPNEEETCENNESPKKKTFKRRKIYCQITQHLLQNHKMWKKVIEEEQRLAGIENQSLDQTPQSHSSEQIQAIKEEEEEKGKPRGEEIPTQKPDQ

[3] = target: Gamma-aminobutyric acid receptor subunit alpha-1 (Rattus norvegicus, UniProt P62813)
Sequence of Gamma-aminobutyric acid receptor subunit alpha-1 (P62813 whole entry): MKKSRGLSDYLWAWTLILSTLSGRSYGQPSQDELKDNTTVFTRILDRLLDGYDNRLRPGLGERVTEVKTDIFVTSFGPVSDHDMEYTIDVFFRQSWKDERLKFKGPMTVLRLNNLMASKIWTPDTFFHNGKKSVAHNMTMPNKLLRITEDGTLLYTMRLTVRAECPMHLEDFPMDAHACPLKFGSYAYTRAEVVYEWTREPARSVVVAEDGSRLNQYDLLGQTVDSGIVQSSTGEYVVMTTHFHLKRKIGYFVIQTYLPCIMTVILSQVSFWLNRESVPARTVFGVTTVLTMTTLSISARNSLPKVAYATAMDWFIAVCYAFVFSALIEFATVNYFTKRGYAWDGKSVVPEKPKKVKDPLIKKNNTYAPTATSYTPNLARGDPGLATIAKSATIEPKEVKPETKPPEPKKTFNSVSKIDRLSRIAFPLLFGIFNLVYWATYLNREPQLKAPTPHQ

Histamine H3 receptor = Histamine H3 receptor (Homo sapiens, UniProt Q9Y5N1)
Sequence of Histamine H3 receptor (Q9Y5N1 whole entry): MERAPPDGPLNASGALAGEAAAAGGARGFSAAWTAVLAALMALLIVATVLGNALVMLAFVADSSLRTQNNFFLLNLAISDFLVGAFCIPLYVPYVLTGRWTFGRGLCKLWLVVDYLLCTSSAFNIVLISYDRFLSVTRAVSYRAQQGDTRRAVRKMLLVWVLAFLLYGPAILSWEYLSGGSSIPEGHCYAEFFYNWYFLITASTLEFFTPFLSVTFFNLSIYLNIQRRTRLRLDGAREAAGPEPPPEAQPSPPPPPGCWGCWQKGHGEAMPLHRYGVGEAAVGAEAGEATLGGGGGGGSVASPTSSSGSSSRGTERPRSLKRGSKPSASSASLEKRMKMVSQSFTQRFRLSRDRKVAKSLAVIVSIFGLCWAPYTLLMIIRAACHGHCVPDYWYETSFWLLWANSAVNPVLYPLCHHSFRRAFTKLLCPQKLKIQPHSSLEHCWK

[4] = target: Beta-1 adrenergic receptor (Homo sapiens, UniProt P08588); format: functional
Sequence of Beta-1 adrenergic receptor (P08588 whole entry): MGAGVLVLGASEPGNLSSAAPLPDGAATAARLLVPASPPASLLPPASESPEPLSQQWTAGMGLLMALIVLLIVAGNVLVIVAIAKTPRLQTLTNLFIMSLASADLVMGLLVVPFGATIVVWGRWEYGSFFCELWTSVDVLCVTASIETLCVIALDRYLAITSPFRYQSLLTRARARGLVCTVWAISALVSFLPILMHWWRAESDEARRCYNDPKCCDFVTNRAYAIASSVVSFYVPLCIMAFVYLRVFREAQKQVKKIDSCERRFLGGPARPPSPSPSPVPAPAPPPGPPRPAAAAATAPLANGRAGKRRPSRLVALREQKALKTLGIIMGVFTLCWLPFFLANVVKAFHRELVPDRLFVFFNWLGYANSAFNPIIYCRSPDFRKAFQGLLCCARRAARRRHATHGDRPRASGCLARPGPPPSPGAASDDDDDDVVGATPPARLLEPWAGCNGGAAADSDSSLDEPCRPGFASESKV

[5] = target: T3, Prostaglandin G/H synthase 1 (Rattus norvegicus, UniProt Q63921); format: functional
T3 sequence (Q63921 whole entry): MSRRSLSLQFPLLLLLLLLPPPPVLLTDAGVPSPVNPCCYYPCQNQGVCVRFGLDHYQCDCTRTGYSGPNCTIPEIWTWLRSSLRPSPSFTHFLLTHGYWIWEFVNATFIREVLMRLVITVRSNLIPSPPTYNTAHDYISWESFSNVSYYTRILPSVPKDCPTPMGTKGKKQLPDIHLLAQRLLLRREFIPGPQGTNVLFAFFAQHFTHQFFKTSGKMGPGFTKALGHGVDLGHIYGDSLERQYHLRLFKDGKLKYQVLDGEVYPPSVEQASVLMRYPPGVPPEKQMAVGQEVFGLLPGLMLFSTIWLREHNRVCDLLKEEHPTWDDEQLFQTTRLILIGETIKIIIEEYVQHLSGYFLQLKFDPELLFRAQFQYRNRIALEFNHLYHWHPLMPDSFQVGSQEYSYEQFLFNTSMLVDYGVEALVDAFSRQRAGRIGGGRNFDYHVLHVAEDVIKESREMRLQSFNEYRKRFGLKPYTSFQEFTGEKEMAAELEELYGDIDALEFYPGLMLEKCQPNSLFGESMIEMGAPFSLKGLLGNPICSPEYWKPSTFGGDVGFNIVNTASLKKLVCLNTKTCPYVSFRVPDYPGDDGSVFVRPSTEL

[6] = target: T4, Alpha-2A adrenergic receptor (Homo sapiens, UniProt P08913); format: functional, cell-based
T4 sequence (P08913 whole entry): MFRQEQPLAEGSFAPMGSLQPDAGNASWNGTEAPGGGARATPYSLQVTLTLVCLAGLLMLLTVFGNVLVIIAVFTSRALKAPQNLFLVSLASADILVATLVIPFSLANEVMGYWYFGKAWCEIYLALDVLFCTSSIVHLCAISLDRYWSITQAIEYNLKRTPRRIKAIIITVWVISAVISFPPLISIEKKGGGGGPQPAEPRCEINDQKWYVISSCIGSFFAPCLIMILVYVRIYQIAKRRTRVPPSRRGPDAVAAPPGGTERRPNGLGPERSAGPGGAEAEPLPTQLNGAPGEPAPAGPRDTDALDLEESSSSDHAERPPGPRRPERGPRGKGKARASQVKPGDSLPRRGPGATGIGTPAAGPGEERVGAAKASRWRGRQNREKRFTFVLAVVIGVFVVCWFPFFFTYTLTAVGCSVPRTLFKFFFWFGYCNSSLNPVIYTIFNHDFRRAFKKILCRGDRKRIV

[7] = target: T5, Equilibrative nucleoside transporter 1 (Homo sapiens, UniProt Q99808)
T5 sequence (Q99808 whole entry): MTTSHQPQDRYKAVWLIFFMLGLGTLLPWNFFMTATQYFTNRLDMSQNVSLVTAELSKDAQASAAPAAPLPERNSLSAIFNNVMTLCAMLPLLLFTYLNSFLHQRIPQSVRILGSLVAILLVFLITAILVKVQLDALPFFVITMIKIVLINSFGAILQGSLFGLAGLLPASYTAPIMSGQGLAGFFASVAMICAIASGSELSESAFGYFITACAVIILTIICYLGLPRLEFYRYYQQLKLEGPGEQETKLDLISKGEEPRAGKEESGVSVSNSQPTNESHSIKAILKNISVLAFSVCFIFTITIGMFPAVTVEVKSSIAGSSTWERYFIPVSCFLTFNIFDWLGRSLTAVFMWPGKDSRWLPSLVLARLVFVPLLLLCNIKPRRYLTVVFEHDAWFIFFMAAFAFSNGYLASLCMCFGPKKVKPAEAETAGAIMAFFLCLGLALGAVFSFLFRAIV
Further: assay procedure not described here.

Sequence of Vasopressin V1a receptor (P37288 whole entry): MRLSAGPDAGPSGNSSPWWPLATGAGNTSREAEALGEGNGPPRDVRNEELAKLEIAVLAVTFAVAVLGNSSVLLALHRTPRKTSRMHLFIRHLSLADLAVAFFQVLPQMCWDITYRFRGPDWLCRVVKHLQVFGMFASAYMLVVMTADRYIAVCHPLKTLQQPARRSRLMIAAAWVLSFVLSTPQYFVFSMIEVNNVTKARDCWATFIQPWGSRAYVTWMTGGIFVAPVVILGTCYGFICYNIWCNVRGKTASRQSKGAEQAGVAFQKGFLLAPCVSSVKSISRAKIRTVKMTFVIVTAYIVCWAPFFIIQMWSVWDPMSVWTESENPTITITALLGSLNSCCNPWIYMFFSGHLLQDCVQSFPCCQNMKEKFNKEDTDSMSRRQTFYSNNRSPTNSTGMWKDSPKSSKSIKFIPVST

Row | Compound | AC50 (Vasopressin V1a receptor) [µM] | AC50 [1] [µM] | AC50 (Histamine H2 receptor) [µM] | AC50 (Motilin receptor) [µM] | AC50 (Endothelin-1 receptor) [µM] | AC50 [2] [µM] | AC50 [3] [µM] | AC50 (Histamine H3 receptor) [µM] | AC50 [4] [µM] | AC50 [5] [µM] | AC50 [6] [µM] | AC50 [7] [µM]
1 | CC[C@H]1CN2CCc3cc(OC)c(OC)cc3[C@@H]2C[C@@H]1C[C@H]1NCCc2cc(OC)c(OC)cc21 [EMETINE] | > 30 | > 30 | > 30 | > 30 | > 30 | > 30 | > 30 | > 30 | > 30 | > 30 | 1.2 | > 30
2 | CCCCCNC(=N)N/N=C/c1c[nH]c2ccc(OC)cc12 [TEGASEROD] | 21.3 | > 10 | > 30 | 16.3 | > 30 | > 30 | > 30 | 27.2 | 7.02 | 25 | 5.65 | > 30
3 | CCOc1ccccc1OCC1CNCCO1 (stereo unspecified) [VILOXAZINE] | > 10 | > 10 | > 10 | > 10 | > 30 | > 30 | > 10 | > 10 | > 10 | > 30 | > 10 | > 30
